pEC50, pIC50: −log10 of the molar value.
Experiments:
GHSR1a [1] = target: T1, GHSR1a (Homo sapiens, UniProt Q92847); experiment: Calcium FLIPR assay, GHSR-1a antagonism (reduction of ghrelin response); format: cell-based; conditions: HEK293/GHSR1a cells, ghrelin 10 nM
T1 construct: expressed in transfected cells; host or cells: HEK293
Experimental: (§1) The intracellular calcium assay was carried out in a 384-well format FLIPR™ (Molecular Device) HEK293/GHSR1a cell line. Cells were seeded 24 hr prior to the experiments at an optimal density per well. Preincubation with selected calcium dye lasted for 30-60 min at room temperature or 37° C. Test compounds, dissolved in DMSO, were added at the appropriate time and incubated for 15 min followed by the addition of ghrelin with FlexStation or FLIPR. Relative fluorescence was monitored by the FLIPR™ Molecular Device. EC50 and IC50 values were estimated from dose-response data using GraphPad Prism software. To check for GHSR-1a agonism the compound was added at t=20 sec. and the calcium response was followed for 2 minutes. To check for GHSR-1a antagonism the compound and Ghrelin (10 nM) were added to the cells at t=20 sec. and the calcium response was measured for 2 minutes. The potency of the antagonist was calculated by its ability to reduce the ghrelin response. Dose-response curves were made for relevant antagonists.

GHSR1a [2] = target: T1, GHSR1a; experiment: Calcium FLIPR assay, GHSR-1a agonism; format: cell-based; parameters: Emax: unit not given here; conditions: HEK293/GHSR1a cells
Experimental: as §1

T1 sequence (Q92847 whole entry): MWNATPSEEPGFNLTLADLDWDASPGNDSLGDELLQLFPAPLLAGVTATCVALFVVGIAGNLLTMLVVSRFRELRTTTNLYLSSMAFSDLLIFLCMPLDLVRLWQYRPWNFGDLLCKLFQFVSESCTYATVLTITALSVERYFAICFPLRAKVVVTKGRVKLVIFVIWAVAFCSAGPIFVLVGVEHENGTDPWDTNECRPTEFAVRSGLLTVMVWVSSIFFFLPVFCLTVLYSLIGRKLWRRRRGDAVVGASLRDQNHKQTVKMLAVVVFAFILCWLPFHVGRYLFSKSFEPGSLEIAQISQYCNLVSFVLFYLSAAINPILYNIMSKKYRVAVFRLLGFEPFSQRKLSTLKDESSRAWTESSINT

pIC50 (GHSR1a [1]) | pEC50 (GHSR1a [2]) | Emax (GHSR1a [2]) | SMILES
6.29 | < 4.52 |  | CC(NC(=O)N(C)C1CCN(C)CC1)c1ccc(C#Cc2ccccc2)c(Cl)c1Cl (centres unmarked) [Compound H0609, 3-(1-(2,3-dichloro-4-(phenylethynyl)phenyl)ethyl)-1-methyl-1-(1-methylpiperidin-4-yl)urea]
5.64 | < 4.52 |  | COc1cc(OC)cc(-c2ccc(C(C)NC(=O)N(C)C3CCN(C)CC3)c(Cl)c2Cl)c1 (centres unmarked) [Compound H0611, 3-(1-(2,3-dichloro-3′,5′-dimethoxy-[1,1′-biphenyl]-4-yl)ethyl)-1-methyl-1-(1-methylpiperidin-4-yl)urea]
5.80 | < 4.52 |  | CC(NC(=O)N(C)C1CCN(C)CC1)c1ccc(-c2cccc(C(N)=O)c2)c(Cl)c1Cl (centres unmarked) [Compound H0612, 2′,3′-dichloro-4′-(1-(3-methyl-3-(1-methylpiperidin-4-yl)ureido)ethyl)-[1,1′-biphenyl]-3-carboxamide]
6.88 | 6.24 |  | CC(NC(=O)N(C)C1CCN(C)CC1)c1ccc(-c2ccc(C#N)nc2)c(Cl)c1Cl (centres unmarked) [Compound H0616, 3-(1-(2,3-dichloro-4-(6-cyanopyridin-3-yl)phenyl)ethyl)-1-methyl-1-(1-methylpiperidin-4-yl)urea]
7.40 | 6.89 |  | CC(NC(=O)N(C)C1CCN(C)CC1)c1ccc(-c2ccc(F)nc2)c(Cl)c1Cl (centres unmarked) [Compound H0618, 3-(1-(2,3-dichloro-4-(6-fluoropyridin-3-yl)phenyl)ethyl)-1-methyl-1-(1-methylpiperidin-4-yl)urea]
6.60 | < 4.52 |  | CC(NC(=O)N(O)C1CCN(C)CC1)c1ccc(-c2cncnc2)c(Cl)c1Cl (centres unmarked) [Compound H0624, 3-(1-(2,3-dichloro-4-(pyrimidin-5-yl)phenyl)ethyl)-1-hydroxy-1-(1-methylpiperidin-4-yl)urea]
8.40 | 7.82 | 3835 | C=Cc1ccc(C(C)NC(=O)N(C)C2CCN(C)CC2)c(Cl)c1Cl (centres unmarked) [Compound H0626, 3-(1-(2,3-dichloro-4-vinylphenyl)ethyl)-1-methyl-1-(1-methylpiperidin-4-yl)urea]
7.23 | 7.00 | 4433 | CCc1ccc(C(C)NC(=O)N(C)C2CCN(C)CC2)c(Cl)c1Cl (centres unmarked) [Compound H0628, 3-(1-(2,3-dichloro-4-ethylphenyl)ethyl)-1-methyl-1-(1-methylpiperidin-4-yl)urea]
6.14 | < 4.52 |  | CN1CCC(N(C)C(=O)NC(C#N)c2ccc(-c3cncnc3)c(Cl)c2Cl)CC1 (centres unmarked) [Compound H0631, 3-(cyano(2,3-dichloro-4-(pyrimidin-5-yl)phenyl)methyl)-1-methyl-1-(1-methylpiperidin-4-yl)urea]
7.89 | 7.43 |  | CC(NC(=O)N(C)C1CCN(C)CC1)c1ccc(CF)c(Cl)c1Cl (centres unmarked) [Compound H0634, 3-(1-(2,3-dichloro-4-(fluoromethyl)phenyl)ethyl)-1-methyl-1-(1-methylpiperidin-4-yl)urea]
5.96 | < 4.52 |  | COC(=O)c1cncc(-c2ccc(C(C)NC(=O)N(C)C3CCN(C)CC3)c(Cl)c2Cl)c1 (centres unmarked) [Compound H0635, methyl 5-(2,3-dichloro-4-(1-(3-methyl-3-(1-methylpiperidin-4-yl)ureido)ethyl)phenyl)nicotinate]
7.24 | < 4.52 |  | CC(NC(=O)N(C)C1CCN(C)CC1)c1ccc(-c2cncc(CF)c2)c(Cl)c1Cl (centres unmarked) [Compound H0638, 3-(1-(2,3-dichloro-4-(5-(fluoromethyl)pyridin-3-yl)phenyl)ethyl)-1-methyl-1-(1-methylpiperidin-4-yl)urea]
6.99 | < 4.52 |  | CC(NC(=O)N(C)C1CCN(C)CC1)c1ccc(C=O)c(Cl)c1Cl (centres unmarked) [Compound H0640, 3-(1-(2,3-dichloro-4-formylphenyl)ethyl)-1-methyl-1-(1-methylpiperidin-4-yl)urea]
7.74 | 7.46 | 1690 | COC(=O)/C=C/c1ccc(C(C)NC(=O)N(C)C2CCN(C)CC2)c(Cl)c1Cl (centres unmarked) [Compound H0641, methyl (E)-3-(2,3-dichloro-4-(1-(3-methyl-3-(1-methylpiperidin-4-yl)ureido)ethyl)phenyl)acrylate]
7.66 | 7.08 | 2660 | CC(NC(=O)N(C)C1CCN(C)CC1)c1ccc(CCCO)c(Cl)c1Cl (centres unmarked) [Compound H0643, 3-(1-(2,3-dichloro-4-(3-hydroxypropyl)phenyl)ethyl)-1-methyl-1-(1-methylpiperidin-4-yl)urea]
6.88 | 6.54 | 2761 | CC(NC(=O)N(C)C1CCN(C)CC1)c1ccc(C2OCCO2)c(Cl)c1Cl (centres unmarked) [Compound H0645, 3-(1-(2,3-dichloro-4-(1,3-dioxolan-2-yl)phenyl)ethyl)-1-methyl-1-(1-methylpiperidin-4-yl)urea]
6.27 | < 4.52 |  | CC(NC(=O)N(C)C1CCN(C)CC1)c1ccc(-c2cncc(/C=N/O)c2)c(Cl)c1Cl (centres unmarked) [Compound H0646, (E)-3-(1-(2,3-dichloro-4-(5-((hydroxyimino)methyl)pyridin-3-yl)phenyl)ethyl)-1-methyl-1-(1-methylpiperidin-4-yl)urea]
8.40 | 8.05 | 2150 | CC(NC(=O)N(C)C1CCN(C)CC1)c1ccc(-c2ccccn2)c(Cl)c1Cl (centres unmarked) [Compound H0650, 3-(1-(2,3-dichloro-4-(pyridin-2-yl)phenyl)ethyl)-1-methyl-1-(1-methylpiperidin-4-yl)urea]
8.40 | 7.96 | 2300 | CC(NC(=O)N(C)C1CCN(C)CC1)c1ccc(-c2ccc(C=O)s2)c(Cl)c1Cl (centres unmarked) [Compound H0651, 3-(1-(2,3-dichloro-4-(5-formylthiophen-2-yl)phenyl)ethyl)-1-methyl-1-(1-methylpiperidin-4-yl)urea]
8.15 | 8.30 | 1500 | CC(NC(=O)N(C)C1CCN(C)CC1)c1ccc(-c2ccc(C=O)s2)c(Cl)c1Cl (centres unmarked) [Compound H0652, 3-(1-(2,3-dichloro-4-(5-formylthiophen-2-yl)phenyl)ethyl)-1-methyl-1-(1-methylpiperidin-4-yl)urea]
8.22 | 8.05 | 2400 | COc1ccc(C(C#N)NC(=O)N(C)C2CCN(C)CC2)c(Cl)c1Br (centres unmarked) [Compound H0658, 3-((3-bromo-2-chloro-4-methoxyphenyl)(cyano)methyl)-1-methyl-1-(1-methylpiperidin-4-yl)urea]
6.41 | 6.45 | 200 | COc1ccc(C(NC(=O)N(C)C2CCN(C)CC2)C(N)=O)c(Cl)c1Br (centres unmarked) [Compound H0659, 2-(3-bromo-2-chloro-4-methoxyphenyl)-2-(3-methyl-3-(1-methylpiperidin-4-yl)ureido)acetamide]
7.16 | 6.74 | 2100 | COC(=O)C(NC(=O)N(C)C1CCN(C)CC1)c1ccc(-c2cccs2)c(Cl)c1Cl (centres unmarked) [Compound H0660, methyl 2-(2,3-dichloro-4-(thiophen-2-yl)phenyl)-2-(3-methyl-3-(1-methylpiperidin-4-yl)ureido)acetate]
≤ 6.00 | < 4.52 |  | COC(=O)C(NC(=O)N(C)C1CCN(C)CC1)c1ccc(-c2cncnc2)c(Cl)c1Cl (centres unmarked) [Compound H0662, methyl 2-(2,3-dichloro-4-(pyrimidin-5-yl)phenyl)-2-(3-methyl-3-(1-methylpiperidin-4-yl)ureido)acetate]
6.56 | < 4.52 |  | COc1ncc(-c2ccc(C(C)NC(=O)N(C)C3CCN(C)CC3)c(Cl)c2Cl)c(OC)n1 (centres unmarked) [Compound H0663, 3-(1-(2,3-dichloro-4-(2,4-dimethoxypyrimidin-5-yl)phenyl)ethyl)-1-methyl-1-(1-methylpiperidin-4-yl)urea]
6.58 | < 4.52 |  | CC(NC(=O)N(C)C1CCN(C)CC1)c1ccc(-c2sccc2CO)c(Cl)c1Cl (centres unmarked) [Compound H0664, 3-(1-(2,3-dichloro-4-(3-(hydroxymethyl)thiophen-2-yl)phenyl)ethyl)-1-methyl-1-(1-methylpiperidin-4-yl)urea]
8.10 | 7.68 | 4927 | CN1CCC(N(C)C(=O)NC(C#N)c2ccc(-c3cncc(C#N)c3)c(Cl)c2Cl)CC1 (centres unmarked) [Compound H0666, 3-(cyano(2,3-dichloro-4-(5-cyanopyridin-3-yl)phenyl)methyl)-1-methyl-1-(1-methylpiperidin-4-yl)urea]
8.10 | 8.00 | 2168 | CC(NC(=O)N(C)C1CCN(C)CC1)c1ccc(-c2ccc(CF)s2)c(Cl)c1Cl (centres unmarked) [Compound H0668, 3-(1-(2,3-dichloro-4-(5-(fluoromethyl)thiophen-2-yl)phenyl)ethyl)-1-methyl-1-(1-methylpiperidin-4-yl)urea]
3.28 | < 4.52 |  | CN1CCC(N(C)C(=O)NC(CO)c2ccc(-c3cncnc3)c(Cl)c2Cl)CC1 (centres unmarked) [Compound H0670, 3-(1-(2,3-dichloro-4-(pyrimidin-5-yl)phenyl)-2-hydroxyethyl)-1-methyl-1-(1-methylpiperidin-4-yl)urea]
7.47 | 7.22 | 3748 | COc1ccc(C(C)(C#N)NC(=O)N(C)C2CCN(C)CC2)c(Cl)c1Cl (centres unmarked) [Compound H0671, 3-(1-cyano-1-(2,3-dichloro-4-methoxyphenyl)ethyl)-1-methyl-1-(1-methylpiperidin-4-yl)urea]

Reference: patent US9546157B2, “Asymmetric piperidinyl-substituted ureas as medicines” (Helsinn Healthcare SA, priority 2014, dated 2017)
